The supplement of paper PMC10307832

How the values were obtained:
Assay in all cases: relative viability (nuclei count vs DMSO), 5 days (fraction); higher = more cells survive
4EGI-1 + Luminespib = compound: O=C(O)C(Cc1ccccc1[N+](=O)[O-])=NNc1nc(-c2ccc(Cl)c(Cl)c2)cs1 (mixture of isomers) [4EGI-1] + CCNC(=O)c1noc(-c2cc(C(C)C)c(O)cc2O)c1-c1ccc(CN2CCOCC2)cc1 [Luminespib] (partner 0.01 µM)
Summary of the method: (§1)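 Lung cancer cell lines, seeded in 1536-well plates, were treated the following day by pin tool with a single drug or with five library-drug doses (not always all listed) in √10 steps on top of a fixed anchor-drug dose. Cells were fixed and nuclei stained in one step after 5 days, and nuclei were counted. Relative viability is the nuclei count for treated wells divided by that for vehicle wells, reported as medians of duplicate plates.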

XMD8-85 + Lapatinib = compound: CN1CCN(CC1)C2=CC(=C(C=C2)NC3=NC=C4C(=N3)N(C5=CC=CC=C5C(=O)N4C)C)OC [XMD8-85] + CS(=O)(=O)CCNCc1ccc(-c2ccc3ncnc(Nc4ccc(OCc5cccc(F)c5)c(Cl)c4)c3c2)o1 [Lapatinib] (partner 2 µM)
Summary of the method: as §1

4EGI-1 + Dasatinib = compound: O=C(O)C(Cc1ccccc1[N+](=O)[O-])=NNc1nc(-c2ccc(Cl)c(Cl)c2)cs1 (mixture of isomers) [4EGI-1] + Cc1nc(Nc2ncc(C(=O)Nc3c(C)cccc3Cl)s2)cc(N2CCN(CCO)CC2)n1 [Dasatinib] (partner 0.075 µM)
Summary of the method: as §1

XMD8-85 + Navitoclax = compound: CN1CCN(CC1)C2=CC(=C(C=C2)NC3=NC=C4C(=N3)N(C5=CC=CC=C5C(=O)N4C)C)OC [XMD8-85] + CC1(C)CCC(c2ccc(Cl)cc2)=C(CN2CCN(c3ccc(C(=O)NS(=O)(=O)c4ccc(N[C@H](CCN5CCOCC5)CSc5ccccc5)c(S(=O)(=O)C(F)(F)F)c4)cc3)CC2)C1 [Navitoclax] (partner 0.5 µM)
Summary of the method: as §1

Cell Line	relative viability (4EGI-1 + Luminespib; first compound 0.5 µM)	relative viability (4EGI-1 + Luminespib; first compound 1.581 µM)	relative viability (4EGI-1 + Luminespib; first compound 5 µM)	relative viability (4EGI-1 + Luminespib; first compound 15.81 µM)	relative viability (4EGI-1 + Luminespib; first compound 50 µM)	relative viability (XMD8-85 + Lapatinib; first compound 0.08 µM)	relative viability (XMD8-85 + Lapatinib; first compound 0.253 µM)	relative viability (XMD8-85 + Lapatinib; first compound 0.8 µM)	relative viability (XMD8-85 + Lapatinib; first compound 2.53 µM)	relative viability (XMD8-85 + Lapatinib; first compound 8 µM)	relative viability (4EGI-1 + Dasatinib; first compound 0.5 µM)	relative viability (4EGI-1 + Dasatinib; first compound 1.581 µM)	relative viability (4EGI-1 + Dasatinib; first compound 5 µM)	relative viability (4EGI-1 + Dasatinib; first compound 15.81 µM)	relative viability (4EGI-1 + Dasatinib; first compound 50 µM)	relative viability (XMD8-85 + Navitoclax; first compound 0.08 µM)	relative viability (XMD8-85 + Navitoclax; first compound 0.253 µM)	relative viability (XMD8-85 + Navitoclax; first compound 0.8 µM)	relative viability (XMD8-85 + Navitoclax; first compound 2.53 µM)	relative viability (XMD8-85 + Navitoclax; first compound 8 µM)
LXF-289	0.745	0.62	0.745	0.644	0.407	0.887	0.855	0.892	0.903	0.818	0.282	0.215	0.249	0.188	0.102	0.831	0.867	0.951	0.974	0.811
NCI-H23	0.221	–	0.23	0.246	0.179	0.949	1.05	1.09	1.08	0.969	0.896	–	0.85	0.79	0.496	0.878	1.22	0.686	0.657	0.544
NCI-H322M	1	–	0.855	0.727	0.321	0.507	0.569	0.593	0.585	0.522	0.23	–	0.243	0.237	0.256	1.21	1.1	1.34	1.2	1.05
NCI-H460	0.038	–	0.0367	0.0323	0.0228	0.551	0.84	1.27	1.29	0.406	0.447	–	0.515	0.307	0.0847	1.07	1.21	1.14	1.22	0.415
NCI-H520	0.231	0.241	0.184	0.256	0.205	0.825	0.749	1.03	0.906	0.756	0.204	0.276	0.187	0.215	0.153	1.2	1.19	1.05	1.06	0.829
NCI-H596	1.02	0.955	1.03	1.07	0.508	1.01	1.03	1.24	1.03	0.874	0.714	0.566	0.584	0.582	0.491	1.04	1.13	1.07	0.68	0.377
NCI-H647	0.227	–	0.149	0.137	0.141	1.08	1.09	1.24	1.48	0.638	0.149	–	0.186	0.167	0.0838	1.35	1.19	1.27	1.14	0.556
NCI-H727	0.506	0.381	0.273	0.449	0.429	0.627	0.792	–	0.731	0.543	0.323	0.436	0.344	0.272	0.23	0.466	0.365	–	0.379	0.247
NCI-H838	0.335	–	0.226	0.229	0.144	0.942	1.05	1.09	0.967	0.45	0.322	–	0.245	0.267	0.19	1.15	1.13	1.16	1.15	0.536
NCI-H1355	0.708	0.706	0.762	0.445	0.326	0.956	1.03	1.01	1.08	0.875	0.786	0.64	0.682	0.497	0.349	1.06	1.01	0.977	0.862	0.804
NCI-H1395	0.717	0.436	0.766	0.789	0.496	0.9	1.11	0.927	0.95	0.679	0.423	0.471	0.436	0.442	0.32	1.09	1.18	1.3	1.03	1.02
NCI-H1437	1.19	1.05	1.15	0.862	0.457	0.785	0.888	0.804	0.792	0.407	0.427	0.409	0.421	0.232	0.103	1.16	1.16	1.13	0.979	0.591
NCI-H1650	0.197	–	0.19	0.203	0.221	0.729	0.819	0.92	0.671	0.281	0.307	–	0.364	0.219	0.136	1.15	1.32	1.29	1.16	0.439
NCI-H1651	0.975	0.658	1.01	0.933	0.924	0.764	0.842	0.96	0.977	0.555	0.36	0.377	0.44	0.346	0.174	1.09	1	1.13	0.976	0.849
NCI-H1666	1.1	0.982	1.04	0.812	0.397	0.58	0.709	0.92	0.816	0.499	0.838	0.717	0.834	0.566	0.374	0.932	1	0.865	0.729	0.727
NCI-H1734	0.203	0.193	0.22	0.2	0.177	1.05	0.977	1.03	1.17	0.987	0.562	0.415	0.46	0.396	0.218	0.806	0.888	0.78	0.952	0.504
NCI-H1755	0.583	0.665	0.418	0.42	0.327	0.943	1.1	1.05	1.17	0.996	0.503	0.428	0.424	0.412	0.288	1.03	1.04	0.953	0.984	0.838
NCI-H1793	0.246	0.246	0.197	0.176	0.139	0.845	0.826	0.857	0.781	0.814	0.349	0.364	0.38	0.374	0.347	0.334	0.348	0.962	1.27	0.351
NCI-H1915	0.838	0.606	0.774	0.572	0.222	0.954	1.01	1.09	0.986	0.921	0.358	0.257	0.314	0.311	0.163	0.859	0.817	0.791	0.771	0.622
NCI-H1944	0.717	–	0.774	0.633	0.561	0.784	0.733	0.897	1.02	0.702	0.22	–	0.199	0.172	0.135	1.13	1.1	1.18	1.16	1.12
NCI-H1975	0.337	–	0.214	0.261	0.159	0.897	0.832	0.886	1.1	0.441	0.372	0.363	0.302	0.282	0.249	1.25	1.12	1.09	1.09	0.532
NCI-H1993	1.03	0.786	0.801	0.637	0.496	0.662	0.755	0.93	0.819	0.774	0.595	0.616	0.543	0.467	0.441	0.848	–	0.885	0.968	0.766
NCI-H2009	1.09	1.08	1.05	0.954	0.994	0.934	0.931	1.01	0.841	0.456	0.344	0.302	0.312	0.269	0.146	1.13	1.12	1.19	1.08	0.717
NCI-H2023	0.897	0.544	0.798	0.203	0.0714	0.649	0.755	0.957	1.02	0.516	0.599	–	0.605	0.226	0.0859	0.924	1.08	1.13	0.997	–
NCI-H2085	0.461	0.452	0.468	0.396	0.355	0.791	0.778	0.815	0.719	0.566	0.318	0.229	0.272	0.216	0.271	1.16	1.11	1.12	1.04	0.789
NCI-H2087	0.191	0.139	0.198	0.206	0.135	1.01	1.08	1.05	1.12	0.974	0.837	0.676	0.918	0.493	0.27	1.06	1.01	1.17	1.05	0.772
NCI-H2126	0.993	–	0.96	0.855	0.678	0.705	0.714	0.757	0.837	0.646	0.673	–	0.629	0.383	0.309	0.946	0.935	0.899	0.897	0.839
